Laboratory results from BindingDB's records for doi:10.1021/jm000991r (University of Bologna, 2001).

Biological target: Cholinesterase (Homo sapiens, UniProt P06276)
Experiment: Inhibitory activity against butyrylcholinesterase (BChE) in human […]

Chain of Cholinesterase (P06276 whole entry): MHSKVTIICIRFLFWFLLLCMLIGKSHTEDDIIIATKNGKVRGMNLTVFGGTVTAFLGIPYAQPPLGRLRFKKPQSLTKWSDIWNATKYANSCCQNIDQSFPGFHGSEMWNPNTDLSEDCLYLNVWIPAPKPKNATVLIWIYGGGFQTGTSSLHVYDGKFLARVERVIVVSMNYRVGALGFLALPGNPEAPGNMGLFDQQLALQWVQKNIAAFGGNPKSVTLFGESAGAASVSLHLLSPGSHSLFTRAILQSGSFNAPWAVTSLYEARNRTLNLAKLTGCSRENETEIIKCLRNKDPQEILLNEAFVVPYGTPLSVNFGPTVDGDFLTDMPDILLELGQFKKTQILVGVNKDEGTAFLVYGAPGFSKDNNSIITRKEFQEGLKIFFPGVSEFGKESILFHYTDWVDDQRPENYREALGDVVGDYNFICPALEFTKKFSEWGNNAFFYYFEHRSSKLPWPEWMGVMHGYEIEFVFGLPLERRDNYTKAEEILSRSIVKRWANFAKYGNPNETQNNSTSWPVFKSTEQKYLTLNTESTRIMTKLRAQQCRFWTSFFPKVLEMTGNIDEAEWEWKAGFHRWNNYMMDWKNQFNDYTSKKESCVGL

SMILES: CNC(=O)Oc1ccc2c(c1)OC[C@@H]1CCN(C)[C@H]21 [(3aR,9bS)-1-methyl-1,2,3,3a,4,9b-hexahydrochromeno[4,3-b]pyrrol-7-yl methylcarbamate]
- IC50: 3.55 µM

SMILES: CNC(=O)Oc1ccc2c(c1)[C@@H]1[C@@H](CCN1C)CO2
- IC50: 10.2 µM

SMILES: CNC(=O)Oc1ccc2c(c1)OC[C@@H]1CC[N+](C)(C)[C@H]21
- IC50: 2.95 µM

SMILES: O=C(CCCCCCC(=O)NCCCCCCN1CC[C@H]2COc3ccccc3[C@H]21)NCCCCCCN1CC[C@H]2COc3ccccc3[C@H]21
- IC50: 0.912 µM

SMILES: CN1CC[C@H]2COc3c(O)cccc3[C@H]21
- IC50: 794 µM

SMILES: CNC(=O)Oc1cccc2c1OC[C@@H]1CCN(C)[C@H]21 [(2S,6R)-3-methyl-8-oxa-3-azatricyclo[7.4.0.0^{2,6}]trideca-1(13),9,11-trien-10-yl N-methylcarbamate]
- IC50: 0.054 µM
